In publication PMC8330742, “New benzothieno[2,3-c]pyridines as non-steroidal CYP17 inhibitors: design, synthesis, anticancer screening, apoptosis induction, and in silico ADME profile studies” (Journal of Enzyme Inhibition and Medicinal Chemistry, 2021):

Experiments:
[1] = tested on: NCI-H23; assay: NCI-60 SRB screen; type: cell-based, human; conditions: Homo sapiens; single dose 10^−5 M; NCI-H23, Non-small cell lung carcinoma; read-out: Growth inhibition (%)
[2] = tested on: UO-31; assay: NCI-60 SRB screen; type: cell-based, human; conditions: Homo sapiens; single dose 10^−5 M; UO-31, Renal cancer; read-out: Growth inhibition (%)
[3] = tested on: OVCAR-3; assay: NCI-60 SRB screen; type: cell-based, human; conditions: Homo sapiens; single dose 10^−5 M; OVCAR-3, Ovarian cancer; read-out: Growth inhibition (%)
[4] = tested on: HL-60(TB); assay: NCI-60 SRB screen; type: cell-based, human; conditions: Homo sapiens; single dose 10^−5 M; HL-60(TB), Leukaemia; read-out: Growth inhibition (%)
[5] = tested on: OVCAR-8; assay: NCI-60 SRB screen; type: cell-based, human; conditions: Homo sapiens; single dose 10^−5 M; OVCAR-8, Ovarian cancer; read-out: Growth inhibition (%)
[6] = tested on: HOP-92; assay: NCI-60 SRB screen; type: cell-based, human; conditions: Homo sapiens; single dose 10^−5 M; HOP-92, Non-small cell lung carcinoma; read-out: Growth inhibition (%)
[7] = tested on: NCI-H522; assay: NCI-60 SRB screen; type: cell-based, human; conditions: Homo sapiens; single dose 10^−5 M; NCI-H522, Non-small cell lung carcinoma; read-out: Growth inhibition (%)
[8] = tested on: NCI/ADR-RES; assay: NCI-60 SRB screen; type: cell-based, human; conditions: Homo sapiens, single dose 10^−5 M, Ovarian cancer, read-out: Growth inhibition (%)
[9] = tested on: HT-29; assay: NCI-60 SRB screen; type: cell-based; conditions: Homo sapiens; single dose 10^−5 M; HT-29, Colon cancer; read-out: Growth inhibition (%)
[10] = tested on: COLO 205; assay: NCI-60 SRB screen; type: cell-based, human; conditions: Homo sapiens; single dose 10^−5 M; COLO 205, Colon cancer; read-out: Growth inhibition (%)
[11] = tested on: OVCAR-4; assay: NCI-60 SRB screen; type: cell-based, human; conditions: Homo sapiens; single dose 10^−5 M; OVCAR-4, Ovarian cancer; read-out: Growth inhibition (%)
[12] = tested on: A549/ATCC; assay: NCI-60 SRB screen; type: cell-based, human; conditions: Homo sapiens, single dose 10^−5 M, Non-small cell lung carcinoma, read-out: Growth inhibition (%)
[13] = tested on: EKVX; assay: NCI-60 SRB screen; type: cell-based, human; conditions: Homo sapiens, single dose 10^−5 M, Non-small cell lung carcinoma, read-out: Growth inhibition (%)
[14] = tested on: MDA-MB-435; assay: NCI-60 SRB screen; type: cell-based; conditions: Homo sapiens, MDA-MB-435, read-out: Growth inhibition (%)
[15] = tested on: TK-10; assay: NCI-60 SRB screen; type: cell-based, human; conditions: Homo sapiens; single dose 10^−5 M; TK-10, Renal cancer; read-out: Growth inhibition (%)
[16] = tested on: CCRF-CEM; assay: NCI-60 SRB screen; type: cell-based; conditions: Homo sapiens, single dose 10^−5 M, Leukaemia, read-out: Growth inhibition (%)
[17] = tested on: HCT-15; assay: NCI-60 SRB screen; type: cell-based, human; conditions: Homo sapiens; single dose 10^−5 M; HCT-15, Colon cancer; read-out: Growth inhibition (%)
[18] = tested on: SW-620; assay: NCI-60 SRB screen; type: cell-based; conditions: Homo sapiens; single dose 10^−5 M; SW-620, Colon cancer; read-out: Growth inhibition (%)
[19] = tested on: SK-MEL-2; assay: NCI-60 SRB screen; type: cell-based, human; conditions: Homo sapiens; single dose 10^−5 M; SK-MEL-2, Melanoma; read-out: Growth inhibition (%)
[20] = tested on: SN12C; assay: NCI-60 SRB screen; type: cell-based, human; conditions: Homo sapiens, SN12C; single dose 10^−5 M; SN 12 C, Renal cancer; read-out: Growth inhibition (%)
[21] = tested on: HCC-2998; assay: NCI-60 SRB screen; type: cell-based, human; conditions: Homo sapiens; single dose 10^−5 M; HCC-2998, Colon cancer; read-out: Growth inhibition (%)
[22] = tested on: NCI-H460; assay: NCI-60 SRB screen; type: cell-based, human; conditions: Homo sapiens; single dose 10^−5 M; NCI-H460, Non-small cell lung carcinoma; read-out: Growth inhibition (%)
[23] = tested on: SF-295; assay: NCI-60 SRB screen; type: cell-based, human; conditions: Homo sapiens; single dose 10^−5 M; SF-295, CNS cancer; read-out: Growth inhibition (%)
[24] = tested on: SF-268; assay: NCI-60 SRB screen; type: cell-based, human; conditions: Homo sapiens; single dose 10^−5 M; SF-268, CNS cancer; read-out: Growth inhibition (%)
[25] = tested on: K-562; assay: NCI-60 SRB screen; type: cell-based, human; conditions: Homo sapiens, K562; single dose 10^−5 M; K-562, Leukaemia; read-out: Growth inhibition (%)
[26] = tested on: SK-MEL-5; assay: NCI-60 SRB screen; type: cell-based, human; conditions: Homo sapiens; single dose 10^−5 M; SK-MEL-5, Melanoma; read-out: Growth inhibition (%)
[27] = tested on: RXF 393; assay: NCI-60 SRB screen; type: cell-based, human; conditions: Homo sapiens; single dose 10^−5 M; RXF 393, Renal cancer; read-out: Growth inhibition (%)
[28] = tested on: KM12; assay: NCI-60 SRB screen; type: cell-based, human; conditions: Homo sapiens; single dose 10^−5 M; KM12, Colon cancer; read-out: Growth inhibition (%)
[29] = tested on: LOX IMVI; assay: NCI-60 SRB screen; type: cell-based, human; conditions: Homo sapiens, single dose 10^−5 M, Melanoma, read-out: Growth inhibition (%)
[30] = tested on: IGROV1; assay: NCI-60 SRB screen; type: cell-based, human; conditions: Homo sapiens, IGROV-1; single dose 10^−5 M; IGROV1, Ovarian cancer; read-out: Growth inhibition (%)
[31] = tested on: ACHN; assay: NCI-60 SRB screen; type: cell-based; conditions: Homo sapiens, single dose 10^−5 M, Renal cancer, read-out: Growth inhibition (%)
[32] = tested on: SK-MEL-28; assay: NCI-60 SRB screen; type: cell-based; conditions: Homo sapiens; single dose 10^−5 M; SK-MEL-28, Melanoma; read-out: Growth inhibition (%)
[33] = tested on: NCI-H226; assay: NCI-60 SRB screen; type: cell-based, human; conditions: Homo sapiens; single dose 10^−5 M; NCI-H226, Non-small cell lung carcinoma; read-out: Growth inhibition (%)
[34] = tested on: MOLT-4; assay: NCI-60 SRB screen; type: cell-based; conditions: Homo sapiens; single dose 10^−5 M; MOLT-4, Leukaemia; read-out: Growth inhibition (%)
[35] = tested on: SK-OV-3; assay: NCI-60 SRB screen; type: cell-based, human; conditions: Homo sapiens; single dose 10^−5 M; SK-OV-3, Ovarian cancer; read-out: Growth inhibition (%)
[36] = tested on: UACC-62; assay: NCI-60 SRB screen; type: cell-based, human; conditions: Homo sapiens; single dose 10^−5 M; UACC-62, Melanoma; read-out: Growth inhibition (%)
[37] = tested on: MALME-3M; assay: NCI-60 SRB screen; type: cell-based, human; conditions: Homo sapiens, single dose 10^−5 M, Melanoma, read-out: Growth inhibition (%)
[38] = tested on: HCT-116; assay: NCI-60 SRB screen; type: cell-based, human; conditions: Homo sapiens; single dose 10^−5 M; HCT-116, Colon cancer; read-out: Growth inhibition (%)
[39] = tested on: CAKI-1; assay: NCI-60 SRB screen; type: cell-based, human; conditions: Homo sapiens; single dose 10^−5 M; CAKI-1, Renal cancer; read-out: Growth inhibition (%)
[40] = tested on: panel of 60 cancer cell lines; assay: NCI-60 SRB screen, mean or range over the panel; type: cell-based, human; conditions: Homo sapiens; mean over the cell lines; single dose 10^−5 M; read-out: Mean growth inhibition (%)
[41] = tested on: NCI-H322M; assay: NCI-60 SRB screen; type: cell-based, human; conditions: Homo sapiens, single dose 10^−5 M, Non-small cell lung carcinoma, read-out: Growth inhibition (%)
[42] = tested on: SR; assay: NCI-60 SRB screen; type: cell-based; conditions: Homo sapiens, single dose 10^−5 M, Leukaemia, read-out: Growth inhibition (%)
[43] = tested on: HOP-62; assay: NCI-60 SRB screen; type: cell-based, human; conditions: Homo sapiens; single dose 10^−5 M; HOP-62, Non-small cell lung carcinoma; read-out: Growth inhibition (%)
[44] = tested on: M14; assay: NCI-60 SRB screen; type: cell-based, human; conditions: Homo sapiens; single dose 10^−5 M; M14, Melanoma; read-out: Growth inhibition (%)

## N#CC1=C(N2CCCCC2)NC(c2cccc([N+](=O)[O-])c2)c2sc3c(F)cccc3c21 (centres unmarked) [Compound 8f, 4-Cyano-3-(piperidin-1-yl)-8-fluoro-1-(3-nitrophenyl)-1,2-dihydro [1]benzothieno[2,3-c]pyridine]
[1]
  inhibition at 10 µM: 4.09%
[2]
  inhibition at 10 µM: 33.3%
[3]
  inhibition at 10 µM: 0.09%
[4]
  inhibition at 10 µM: -3.35%
[5]
  inhibition at 10 µM: -0.33%
[6]
  inhibition at 10 µM: 4.9%
[7]
  inhibition at 10 µM: 9.54%
[8]
  inhibition at 10 µM: -1.61%
[9]
  inhibition at 10 µM: -4.42%
[10]
  inhibition at 10 µM: -16.7%
[11]
  inhibition at 10 µM: 0.9%
[12]
  inhibition at 10 µM: -2.65%
[13]
  inhibition at 10 µM: 5.51%
[14]
  inhibition at 10 µM: -6.93%
[15]
  inhibition at 10 µM: -53.1%
[16]
  inhibition at 10 µM: 3.32%
[17]
  inhibition at 10 µM: -4.78%
[18]
  inhibition at 10 µM: 4.11%
[19]
  inhibition at 10 µM: 2.71%
[20]
  inhibition at 10 µM: 3.7%
[21]
  inhibition at 10 µM: -23.2%
[22]
  inhibition at 10 µM: 2.2%
[23]
  inhibition at 10 µM: -9.62%
[24]
  inhibition at 10 µM: 9.44%
[25]
  inhibition at 10 µM: 23.1%
[26]
  inhibition at 10 µM: -14.8%
[27]
  inhibition at 10 µM: -6.31%
[28]
  inhibition at 10 µM: 5.13%
[29]
  inhibition at 10 µM: 2.61%
[30]
  inhibition at 10 µM: 14.9%
[31]
  inhibition at 10 µM: 14.3%
[32]
  inhibition at 10 µM: -10.7%
[33]
  inhibition at 10 µM: 15.7%
[34]
  inhibition at 10 µM: 5.31%
[35]
  inhibition at 10 µM: 7.22%
[36]
  inhibition at 10 µM: 15.5%
[37]
  inhibition at 10 µM: -10.6%
[38]
  inhibition at 10 µM: 4.5%
[39]
  inhibition at 10 µM: 28.7%
[40]
  inhibition at 10 µM: 0.008%
[41]
  inhibition at 10 µM: -5.64%
[42]
  inhibition at 10 µM: 11.1%
[43]
  inhibition at 10 µM: 10.2%
[44]
  inhibition at 10 µM: 0.58%
